For this experiment, the system named is Rab33b. Type of experiment: cell-based.

Residues, ends and D or L forms follow the SMILES beside them. *: point of attachment. Cbz = O=C(OCc1ccccc1)*

`CC(C)C[C@@H](C=O)NC(=O)[C@H](CC(C)C)NC(=O)[C@H](CC(C)C)NC(=O)OCc1ccccc1` [MG132] (Cbz-Leu-Leu-Leu-aldehyde): the “effect on level of modified Rab33b” value is “does not affect the level of modified Rab33b”.

The values are drawn from patent publication US10604785B2 (priority 2016, dated 2020).
